Experiment: Doxorubicin brain concentration after intravenous administration, LC-MS/MS
Conditions: mice, 7.5 mg/kg intravenous
Description: A study was performed to determine doxorubicin distribution after administration, when comparing three doxorubicin-containing compositions, each administered to a group of 10 male ICR mice aged 7 weeks. Composition 1 was free doxorubicin.
Animals were administered doxorubicin in the following amount per administration, for each of the three compositions. Composition 1, was administered in HEPES solution at a dose of 7.5 mg/kg, in a volume of 100 microliter (μl) via the intravenous route. Compositions 2 and 3 were each administered at a dose of 15 mg/kg (equivalent of doxorubicin) in a volume of 300 μl via the intravenous route.
Five mice in each group were sacrificed one hour post administration, and five mice four hours post administration, and doxorubicin brain concentrations were determined using an LC-MS/MS method.

## COc1cccc2c1C(=O)c1c(O)c3c(c(O)c1C2=O)C[C@@](O)(C(=O)CO)C[C@@H]3O[C@H]1C[C@H](N)[C@H](O)[C@H](C)O1 [Composition 1, doxorubicin]
60 minutes post administration
  doxorubicin brain concentration: low brain concentration
240 minutes post administration
  doxorubicin brain concentration: low brain concentration

Reference: US20220305137A1, “DRUG CONTAINING TARGETING LIPOSOMES” (NEXTAR CHEMPHARMA SOLUTIONS LTD., priority 2019, published 2022)
